Laboratory results from patent US20180327367A1, “MACROCYCLIC BROAD SPECTRUM ANTIBIOTICS” (priority 2015, published 2018).
Values after ≈ are worked out from the molar mass of the structure shown.

Legend:
[1] = system: Methicillin Resistant Staphylococcus aureus strain USA 300, NRS384; assay: Minimum inhibitory concentration, broth micro-dilution (CLSI), S. aureus; type: cell-based; details: Staphylococcus aureus, MRSA / NRS 384 / USA300, 22 h, MRSA USA 300 NRS384; 35° C., 22 hours; read-out: MIC (μg/mL) S. aureus
Procedure, shortened: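 Colonies grown 20 hours at 35° C were suspended in cation-adjusted Mueller Hinton Broth with 0.002% Tween-80. Cells were then added to 2-fold compound dilutions starting at 4 or 0.5 μg/mL, at OD600 0.0005.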

[2] = system: Escherichia coli MC4100 harboring the IMP4213 (E. coli IMP); assay: microbe, parasite or virus in culture; type: cell-based; details: Escherichia coli, 22 h, read-out: MIC (μg/mL) E. coli IMP, E. coli MC4100 IMP4213, increased outer-membrane permeability; 35° C., 22 hours
Procedure, shortened: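 Broth micro-dilution per CLSI in cation-adjusted Mueller Hinton Broth with 0.002% Tween-80; E. coli MC4100 carries IMP4213, raising outer-membrane permeability. Compounds tested as 2-fold serial dilutions (10 concentrations) from 4 μg/mL (protocol 2) or 0.5 μg/mL (protocol 3); inoculum OD600 0.0005, 35° C for 22 hours.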

[3] = system: Escherichia coli ATCC 25922; assay: Minimum inhibitory concentration, broth micro-dilution (CLSI), E. coli; type: cell-based; details: Escherichia coli, ATCC25922, 22 h, E. coli ATCC 25922; 35° C., 22 hours; read-out: MIC (μg/mL) E. coli
[4] = target: T1, SpsB (Staphylococcus aureus signal peptidase) (Staphylococcus aureus, UniProt P0A070); assay: cell-based; type: biochemical; details: SpsB IC50, whole-cell S. aureus (USA300 background, overexpressing SpsB) as SpsB source; fluorogenic peptide substrate, kinetic read 30 min
T1 construct: This assay uses a suspension of Staphylococcus aureus cells as a source of SpsB instead of recombinant SpsB protein; endogenous in cells; host or cells: S. aureus, USA300 background, overexpressing SpsB (whole-cell suspension from frozen pellets)
T1 sequence (P0A070 whole entry): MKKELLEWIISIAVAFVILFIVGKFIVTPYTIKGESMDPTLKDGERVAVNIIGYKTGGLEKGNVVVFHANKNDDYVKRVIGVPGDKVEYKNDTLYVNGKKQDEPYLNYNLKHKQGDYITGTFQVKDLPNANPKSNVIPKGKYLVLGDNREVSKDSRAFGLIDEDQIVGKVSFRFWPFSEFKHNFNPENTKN
Procedure, shortened: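 Whole S. aureus cells (USA300, overexpressing SpsB) in PBS with MgCl2, CaCl2 and 0.1% Tween-80 served as enzyme source, mixed with 20 μM stock of (Dabcyl)βAla-KPAKAAE(Edans) substrate before use. Fluorescence (ex 340/em 490 nm) read kinetically over 30 min. IC50 from reaction rate versus 11-point inhibitor concentration.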

Compound CCCCCCCCc1ccc(C(=O)N[C@@H](CCCN)C(=O)N(C)[C@@H]2C(=O)N[C@@H](C)C(=O)N[C@H](C(=O)NCC#N)Cc3ccc(OCCCN)c(c3)-c3cc2ccc3OCCCN)cc1 [Compound 457] has an MIC [1] of 0.047 µg/mL (≈ 0.0524 µM), an MIC [2] of 0.0078 µg/mL (≈ 0.0087 µM) and an MIC [3] of 0.25 µg/mL (≈ 0.279 µM). For the same compound, the IC50 [4] was 0.64 nM.
CCCCCCCCCCCCCC(=O)N(C)[C@@H]1C(=O)N[C@@H](C)C(=O)N[C@H](C(=O)NCC#N)Cc2ccc(OCCN(C)C)c(c2)-c2cc1ccc2OCCN(C)C [Compound 460] showed an MIC [1] of 2 µg/mL (≈ 2.49 µM), an MIC [2] of 1.5 µg/mL (≈ 1.87 µM) and an MIC [3] of 16 µg/mL (≈ 19.9 µM). It also gave an IC50 [4] of 14 nM.
C[C@@H]1NC(=O)[C@@H](N(C)C(=O)CCNCc2ccc(-c3ccc(Cl)cc3)cc2)c2ccc(OCCN)c(c2)-c2cc(ccc2OCCN)C[C@@H](C(=O)NCC#N)NC1=O [Compound 461] gave an MIC [1] of 0.063 µg/mL (≈ 0.0778 µM), an MIC [2] of 4 µg/mL (≈ 4.94 µM) and an MIC [3] greater than 64 µg/mL. For the same compound, the IC50 [4] was 0.74 nM.
Compound CCCCCc1ccc(CNCCC(=O)N(C)[C@@H]2C(=O)N[C@@H](C)C(=O)N[C@H](C(=O)NCC#N)Cc3ccc(OCCN)c(c3)-c3cc2ccc3OCCN)c(C)c1 [Compound 462] has an MIC [1] of 0.094 µg/mL (≈ 0.12 µM), an MIC [2] of 4 µg/mL (≈ 5.11 µM) and an MIC [3] of 64 µg/mL (≈ 81.7 µM). It also gave an IC50 [4] of 0.81 nM.
Work on CCCCCCCCCC(=O)NCC(=O)N(C)[C@@H]1C(=O)N[C@@H](C)C(=O)N[C@H](C(=O)NCC#N)Cc2ccc(OCCN)c(c2)-c2cc1ccc2OCCN [Compound 463] yielded an MIC [1] of 0.5 µg/mL (≈ 0.668 µM), an MIC [2] of 0.5 µg/mL (≈ 0.668 µM) and an MIC [3] greater than 64 µg/mL. The IC50 [4] was 3.2 nM.
In the case of CCCCCCCCCC(=O)NCCC(=O)N(C)[C@@H]1C(=O)N[C@@H](C)C(=O)N[C@H](C(=O)NCC#N)Cc2ccc(OCCN)c(c2)-c2cc1ccc2OCCN [Compound 464], the MIC [1] is reported as 1 µg/mL (≈ 1.31 µM), the MIC [2] is reported as greater than 4 µg/mL and the MIC [3] is reported as greater than 64 µg/mL. It also gave an IC50 [4] of 6 nM.
CCCCCCCCCCCCCC(=O)N[C@@H](CC)C(=O)N(C)[C@@H]1C(=O)N[C@@H](C)C(=O)N[C@H](C(=O)NCC#N)Cc2ccc(OCCN)c(c2)-c2cc1ccc2OCCN [Compound 465] was tested, and the MIC [1] was 0.094 µg/mL (≈ 0.113 µM), the MIC [2] was 0.19 µg/mL (≈ 0.228 µM) and the MIC [3] was 4 µg/mL (≈ 4.8 µM). It also gave an IC50 [4] of 1.6 nM.
CCCCCCCCCCCC(=O)N[C@@H](CCCCN)C(=O)N(C)[C@@H]1C(=O)N[C@@H](C)C(=O)N[C@H](C(=O)NCC#N)Cc2ccc(O)c(c2)-c2cc1ccc2O [Compound 468] gave an MIC [1] of 0.19 µg/mL (≈ 0.249 µM), an MIC [2] of 0.5 µg/mL (≈ 0.656 µM) and an MIC [3] of 64 µg/mL (≈ 84 µM). It also gave an IC50 [4] of 3.4 nM.
CCCCCCCCCCNCCC(=O)N[C@@H](CO)C(=O)N(C)[C@@H]1C(=O)N[C@@H](C)C(=O)N[C@H](C(=O)NCC#N)Cc2ccc(O)c(c2)-c2cc1ccc2O [Compound 469] was tested, and the MIC [1] was 4 µg/mL (≈ 5.33 µM), the MIC [2] was greater than 4 µg/mL and the MIC [3] was greater than 64 µg/mL. It also gave an IC50 [4] of 5 nM.
CCCCCCCCc1ccc(C(=O)N[C@@H](CCCCN)C(=O)N(C)[C@@H]2C(=O)N[C@@H](C)C(=O)N[C@H](C(=O)NCC#N)Cc3ccc(OC)c(c3)-c3cc2ccc3OC)cc1 [Compound 470] was tested, and the MIC [1] was 3 µg/mL (≈ 3.64 µM), the MIC [2] was 0.5 µg/mL (≈ 0.607 µM) and the MIC [3] was greater than 64 µg/mL. For the same compound, the IC50 [4] was 24 nM.
Work on CCCCCCCCc1ccc(C(=O)N[C@@H](CCCN)C(=O)N(C)[C@@H]2C(=O)N[C@@H](C)C(=O)N[C@H](C(=O)NCC#N)Cc3ccc(OC)c(c3)-c3cc2ccc3OC)c(OC)c1 [Compound 473] yielded an MIC [1] of 1.5 µg/mL (≈ 1.79 µM), an MIC [2] of 0.25 µg/mL (≈ 0.298 µM) and an MIC [3] greater than 64 µg/mL. It also gave an IC50 [4] of 39 nM.
Work on CCCCCCCCCCCCCC(=O)N(C)[C@@H]1C(=O)N[C@@H](C)C(=O)N[C@H](C(=O)NCC#N)Cc2ccc(OCCN)c(c2)-c2cc1ccc2OCCN [Compound 475] yielded an MIC [1] of 1 µg/mL (≈ 1.34 µM), an MIC [2] of 0.5 µg/mL (≈ 0.668 µM) and an MIC [3] of 6 µg/mL (≈ 8.02 µM). For the same compound, the IC50 [4] was 18 nM.
With CCCCCCCCc1ccc(C(=O)N(C)[C@@H]2C(=O)N[C@@H](C)C(=O)N[C@H](C(=O)NCC#N)Cc3ccc(OCCN)c(c3)-c3cc2ccc3OCCN)cc1 [Compound 476] the MIC [1] was 2 µg/mL (≈ 2.65 µM), the MIC [2] was 8 µg/mL (≈ 10.6 µM) and the MIC [3] was 32 µg/mL (≈ 42.4 µM). It also gave an IC50 [4] of 86 nM.
CCCCc1ccc(-c2ccc(C(=O)N[C@@H](CC3CCNCC3)C(=O)N(C)[C@@H]3C(=O)N[C@@H](C)C(=O)N[C@H](C(=O)NCC#N)Cc4ccc(OCCN)c(c4)-c4cc3ccc4OCCN)cc2)cc1 [Compound 477] gave an MIC [1] of 0.063 µg/mL (≈ 0.0679 µM), an MIC [2] of 0.063 µg/mL (≈ 0.0679 µM) and an MIC [3] of 4 µg/mL (≈ 4.31 µM). It also gave an IC50 [4] of 0.68 nM.
CCCCc1ccc(-c2ccc(C(=O)N[C@@H](Cc3c[nH]cn3)C(=O)N(C)[C@@H]3C(=O)N[C@@H](C)C(=O)N[C@H](C(=O)NCC#N)Cc4ccc(OCCN)c(c4)-c4cc3ccc4OCCN)cc2)cc1 [Compound 478] gave an MIC [1] of 0.19 µg/mL (≈ 0.209 µM), an MIC [2] of 0.19 µg/mL (≈ 0.209 µM) and an MIC [3] of 6 µg/mL (≈ 6.59 µM). It also gave an IC50 [4] of 1.5 nM.
